{
  "source": "patent US20090088377A1",
  "about": "“CYSTEIC ACID DERIVATIVES OF ANTI-VIRAL PEPTIDES” (priority 2007, published 2009)",
  "key": {"HIV-1 IIIB": {"system": "HIV-1 IIIB", "test": "Anti-HIV efficacy evaluation in fresh human PBMCs (albumin conjugates vs original peptides)", "format": "cell-based", "conditions": "NA = IC50 not achieved", "method": "HIV-1 IIIB was obtained through the AIDS Research and Reference Reagent Program, Division of AIDS, NIAID, NIH courtesy of Dr. Robert C. […] Fresh human peripheral blood mononuclear cells (PBMCs), seronegative for HIV and HBV, were isolated from blood of screened donors (Biological Specialty Corporation; Colmar, Pa.) using Lymphocyte Separation Medium (LSM; Cellgro® by Mediatech, Inc.; density 1.078+/−0.002 g/ml) following the manufacturer's instructions. Cells were stimulated by incubation in 4 μg/mL Phytohemagglutinin (PHA; Sigma) for 48-72 hours. Mitogenic stimulation was maintained by the addition of 20 U/mL recombinant human IL-2 (R&D Systems, Inc) to the culture medium. PHA-stimulated PBMCs from at least two donors were pooled, diluted in fresh medium and added to 96-well plates at 5×10^4 cells/well. Cells were infected (final MOI≅0.1) in the presence of 9 different concentrations of test compounds (triplicate wells/concentration) and incubated for 7 days. […] Following removal of supernatant samples, compound cytotoxicity was measured by the addition of 3-(4,5-dimethylthiazol-2-yl)-5-(3-carboxymethoxyphenyl)-2-(4-sulfophenyl)-2H-tetrazolium (MTS; CellTiter 96 Reagent, Promega) following the manufacturer's instructions. […] AZT (nucleoside reverse transcriptase inhibitor) was used as the assay control compound."}, "[1]": {"target": "HIV-1 transmembrane glycoprotein gp41 (strain HIV-1 IIIB) (HIV-1 strain IIIB) (UniProt P04578)", "test": "cell-based or functional assay"}, "RSV": {"system": "RSV", "conditions": "RSV-infected and uninfected Hep-2 cells; cited from earlier work"}, "HPIV-3": {"system": "HPIV-3", "conditions": "HPIV-3-infected Hep2 cells and uninfected CV-1W cells; cited from earlier work"}, "[2]": {"system": "NL4-3 with DIV (G36D) mutation in gp41", "conditions": "NL4-3, in vitro; cited from earlier work"}, "[3]": {"conditions": "HIV-1 IIIB in PHA-stimulated PBMCs, 7 days"}},
  "data": [
    {"molecule": "Cc1cn([C@H]2C[C@H](N=[N+]=[N-])[C@@H](CO)O2)c(=O)[nH]c1=O", "note": "[AZT]", "values": [
      {"measurement": "IC50", "setting": "HIV-1 IIIB; [3]", "result": 2.9, "unit": "nM"},
      {"measurement": "IC90", "setting": "HIV-1 IIIB; [3]", "result": 26.9, "unit": "nM"},
      {"measurement": "Selectivity Index", "setting": "HIV-1 IIIB; from TC50 (MTS) and IC50 in PBMCs", "result": ">346"}
    ]},
    {"molecule": "C34 peptide", "values": [
      {"measurement": "IC50 (50% inhibition of virus replication), HIV-1 IIIB in PBMC", "setting": "[1]", "result": 0.6, "unit": "nM"}
    ]},
    {"molecule": "IALLSTNKAVVSLSNGVSVLTSKVLDLKNYIDK [SEQ ID NO:24]", "values": [
      {"measurement": "Concentration inhibiting fusion and syncytia formation", "setting": "RSV", "result": "less than 50 μg/ml"}
    ]},
    {"molecule": "NSVALDPIDISIELNKAKSDLEESKEWIRRSNQKL [SEQ ID NO:27]", "values": [
      {"measurement": "Concentration inhibiting fusion and syncytia formation", "setting": "HPIV-3", "result": "less than 1 μg/ml"}
    ]},
    {"molecule": "T-20 (DP-178, enfuvirtide, Fuzeon) (peptide)", "values": [
      {"measurement": "IC50 (50% inhibition of virus replication), HIV-1 IIIB in PBMC", "setting": "[1]", "result": 2.2, "unit": "nM"},
      {"measurement": "IC90 (90% inhibition of virus replication), HIV-1 IIIB in PBMC", "setting": "[1]", "result": 9.5, "unit": "nM"}
    ]},
    {"molecule": "enfuvirtide", "values": [
      {"measurement": "Resistance conferred by the DIV (G36D) mutation in gp41", "setting": "[2]", "result": 8, "unit": "fold"}
    ]}
  ]
}
